The numbers were not newly measured in US9511035B2, “Java ginger extract and manufacturing method” (Hosoda SHC Inc., priority 2013, dated 2016), which cites them from elsewhere.

The structures appear in SMILES notation.

Series [1] deals with rat adrenal medullary pheochromocytoma (PC12 cell). Particulars: stated in words; for NGF-like action: no data in this patent, earlier finding of the inventors (JP 2010-90053 A).
Series [2] has as its target platelet-activating factor (Homo sapiens, UniProt P25105). Particulars: disclosed in JP 2003-313116 A.
The subject of another series is tyrosinase. Particulars: disclosed in JP 2003-313116 A.
For another series, the system named is chemokine expression. The note with it: disclosed in JP 2003-306438 A.

Chain of platelet-activating factor (P25105 whole entry): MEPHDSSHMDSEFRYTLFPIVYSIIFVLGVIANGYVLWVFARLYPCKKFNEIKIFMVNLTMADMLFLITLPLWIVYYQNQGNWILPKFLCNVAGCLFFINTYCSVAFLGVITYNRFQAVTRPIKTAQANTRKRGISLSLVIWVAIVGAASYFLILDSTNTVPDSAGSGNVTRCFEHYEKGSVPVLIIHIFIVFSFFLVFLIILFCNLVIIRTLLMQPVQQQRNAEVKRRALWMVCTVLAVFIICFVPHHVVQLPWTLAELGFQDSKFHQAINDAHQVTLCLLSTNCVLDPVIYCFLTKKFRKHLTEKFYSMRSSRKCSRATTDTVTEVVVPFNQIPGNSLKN

For `COc1ccc(/C=C/C2CCC=CC2c2ccc(OC)c(OC)c2)cc1OC` (centres unmarked) [phenyl butenoid dimer], the process extension activity result in series [1] (PC12 cell) is “shows a process extension activity”. Further, the “differentiation of PC12 cell” value in series [1] (as is the case with the NGF) is reported as “induces differentiation”. Also, the “NGF-like action (neuronal process extension action) relative to NGF” value in series [1] (comparison with NGF) is reported as “more effective than NGF”. Besides, the NGF-like action entry in series [1] is listed as “showed an NGF-like action”. In addition, the platelet-activating factor antagonism entry in series [2] was “platelet-activating factor antagonism”. The tyrosinase activity-inhibiting action entry in the series on tyrosinase is listed as “tyrosinase activity-inhibiting action”. Also, the chemokine expression-inhibiting action result in the series on chemokine expression is “chemokine expression-inhibiting action”.
On to `C=C/C=C/c1ccc(OC)c(OC)c1` [monomer, phenyl butenoid monomer, reference compound], for which the NGF-like action result in series [1] is “no NGF-like action”.
